{"source": "patent US20210032257A1", "about": "“(E)-1-(4-(DIMETHYLAMINO)BUT-2-ENOYL)PYRROLIDIN-3-YL 4-((3-ISOPROPYL-5-METHYLPYRAZOLO[1,5-A]PYRIMIDIN-7-YL)AMINO)PIPERIDINE-1-CARBOXYLATE FOR INHIBITING CDK7” (Eli Lilly and Company, priority 2017, published 2021)", "assay_in_all_cases": "Biomarker study proliferation (CellTiter-Glo)", "type_in_all_cases": "cell-based", "key": {"HCT116": {"tested_on": "HCT116", "method_in_brief": "(§1)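 An ATP-based luminescent readout quantified growth inhibition following a seven-day incubation with serially diluted test compound. Cells were plated overnight beforehand at 5000 per well.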"}, "LN229": {"tested_on": "LN229", "method_in_brief": "as §1"}, "NUGC4": {"tested_on": "NUGC4", "method_in_brief": "as §1"}, "KURAMOCHI": {"tested_on": "KURAMOCHI", "method_in_brief": "as §1"}, "NCIH446": {"tested_on": "NCIH446", "method_in_brief": "as §1"}, "SKHEP1": {"tested_on": "SKHEP1", "method_in_brief": "as §1"}, "SNU423": {"tested_on": "SNU423", "method_in_brief": "as §1"}, "Karpas1106": {"tested_on": "Karpas1106", "method_in_brief": "as §1"}, "OAW42": {"tested_on": "OAW42", "method_in_brief": "as §1"}, "HS766T": {"tested_on": "HS766T", "method_in_brief": "as §1"}, "NCIH596": {"tested_on": "NCIH596", "method_in_brief": "as §1"}, "KLE": {"tested_on": "KLE", "method_in_brief": "as §1"}, "SAOS2": {"tested_on": "SAOS2", "method_in_brief": "as §1"}, "T47D": {"tested_on": "T47D", "method_in_brief": "as §1"}, "EVSAT": {"tested_on": "EVSAT", "method_in_brief": "as §1"}, "TCCSUP": {"tested_on": "TCCSUP", "method_in_brief": "as §1"}, "KPL1": {"tested_on": "KPL1", "method_in_brief": "as §1"}, "OVCAR5": {"tested_on": "OVCAR5", "method_in_brief": "as §1"}, "BT20": {"tested_on": "BT20", "method_in_brief": "as §1"}, "[1]": {"details": "168 h, read-out: Anti-proliferation effect IC50"}, "[2]": {"details": "Homo sapiens, 168 h, read-out: Anti-proliferation effect IC50"}}, "data": [{"smiles": "Cc1cc(NC2CCN(C(=O)O[C@H]3CCN(C(=O)/C=C/CN(C)C)C3)CC2)n2ncc(C(C)C)c2n1", "note": "[Example 1, [(3S)-1-[(E)-4-(dimethylamino)but-2-enoyl]pyrrolidin-3-yl] 4-[(3-isopropyl-5-methyl-pyrazolo[1,5-a]pyrimidin-7-yl)amino]piperidine-1-carboxylate]", "values": [{"measurement": "Anti-proliferation effect % Inh.", "setting": "HCT116; HCT116, INTESTINE, 7 days", "result": 88, "unit": "%"}, {"measurement": "Anti-proliferation effect Outcome", "setting": "HCT116; HCT116, INTESTINE, 7 days", "result": "Cytotoxic (cytotoxic (IC50<1 μM and % inhibition ≥70%))"}, {"measurement": "IC50", "setting": "HCT116; Homo sapiens, HCT-116, 168 h, read-out: Anti-proliferation effect IC50", "result": 41, "unit": "nM"}, {"measurement": "IC50", "setting": "LN229; Homo sapiens, LN-229, 168 h, read-out: Anti-proliferation effect IC50", "result": 36, "unit": "nM"}, {"measurement": "Anti-proliferation effect % Inh.", "setting": "LN229; LN229, CNS, 7 days", "result": 63, "unit": "%"}, {"measurement": "Anti-proliferation effect Outcome", "setting": "LN229; LN229, CNS, 7 days", "result": "Cytostatic (cytostatic (IC50<1 μM and % inhibition <70%))"}, {"measurement": "IC50", "setting": "NUGC4; Homo sapiens, NUGC-4, 168 h, read-out: Anti-proliferation effect IC50", "result": 19, "unit": "nM"}, {"measurement": "Anti-proliferation effect % Inh.", "setting": "NUGC4; NUGC4, STOMACH, 7 days", "result": 83, "unit": "%"}, {"measurement": "Anti-proliferation effect Outcome", "setting": "NUGC4; NUGC4, STOMACH, 7 days", "result": "Cytotoxic (cytotoxic (IC50<1 μM and % inhibition ≥70%))"}, {"measurement": "IC50", "setting": "KURAMOCHI; [1]", "result": 52, "unit": "nM"}, {"measurement": "Anti-proliferation effect % Inh.", "setting": "KURAMOCHI; KURAMOCHI, OVARY, 7 days", "result": 88, "unit": "%"}, {"measurement": "Anti-proliferation effect Outcome", "setting": "KURAMOCHI; KURAMOCHI, OVARY, 7 days", "result": "Cytotoxic (cytotoxic (IC50<1 μM and % inhibition ≥70%))"}, {"measurement": "IC50", "setting": "NCIH446; Homo sapiens, NCI-H446, 168 h, read-out: Anti-proliferation effect IC50", "result": 13, "unit": "nM"}, {"measurement": "Anti-proliferation effect % Inh.", "setting": "NCIH446; NCIH446, LUNG, 7 days", "result": 95, "unit": "%"}, {"measurement": "Anti-proliferation effect Outcome", "setting": "NCIH446; NCIH446, LUNG, 7 days", "result": "Cytotoxic (cytotoxic (IC50<1 μM and % inhibition ≥70%))"}, {"measurement": "IC50", "setting": "SKHEP1; Homo sapiens, SK-HEP1, 168 h, read-out: Anti-proliferation effect IC50", "result": 118, "unit": "nM"}, {"measurement": "Anti-proliferation effect % Inh.", "setting": "SKHEP1; SKHEP1, LIVER, 7 days", "result": 71, "unit": "%"}, {"measurement": "Anti-proliferation effect Outcome", "setting": "SKHEP1; SKHEP1, LIVER, 7 days", "result": "Cytotoxic (cytotoxic (IC50<1 μM and % inhibition ≥70%))"}, {"measurement": "IC50", "setting": "SNU423; Homo sapiens, SNU-423, 168 h, read-out: Anti-proliferation effect IC50", "result": "> 10000", "unit": "nM"}, {"measurement": "Anti-proliferation effect % Inh.", "setting": "SNU423; SNU423, LIVER, 7 days", "result": 40, "unit": "%"}, {"measurement": "Anti-proliferation effect Outcome", "setting": "SNU423; SNU423, LIVER, 7 days", "result": "Insensitive (insensitive (IC50≥1 μM))"}, {"measurement": "IC50", "setting": "Karpas1106; [1]", "result": 26, "unit": "nM"}, {"measurement": "Anti-proliferation effect % Inh.", "setting": "Karpas1106; Karpas1106, BLOOD, 7 days", "result": 98, "unit": "%"}, {"measurement": "Anti-proliferation effect Outcome", "setting": "Karpas1106; Karpas1106, BLOOD, 7 days", "result": "Cytotoxic (cytotoxic (IC50<1 μM and % inhibition ≥70%))"}, {"measurement": "IC50", "setting": "OAW42; Homo sapiens, OAW-42, 168 h, read-out: Anti-proliferation effect IC50", "result": 136, "unit": "nM"}, {"measurement": "Anti-proliferation effect % Inh.", "setting": "OAW42; OAW42, OVARY, 7 days", "result": 88, "unit": "%"}, {"measurement": "Anti-proliferation effect Outcome", "setting": "OAW42; OAW42, OVARY, 7 days", "result": "Cytotoxic (cytotoxic (IC50<1 μM and % inhibition ≥70%))"}, {"measurement": "Anti-proliferation effect % Inh.", "setting": "HS766T; HS766T, PANCREAS, 7 days", "result": 72, "unit": "%"}, {"measurement": "Anti-proliferation effect Outcome", "setting": "HS766T; HS766T, PANCREAS, 7 days", "result": "Cytotoxic (cytotoxic (IC50<1 μM and % inhibition ≥70%))"}, {"measurement": "IC50", "setting": "HS766T; Hs766T, 168 h, read-out: Anti-proliferation effect IC50", "result": 62, "unit": "nM"}, {"measurement": "IC50", "setting": "NCIH596; Homo sapiens, NCI-H596, 168 h, read-out: Anti-proliferation effect IC50", "result": 922, "unit": "nM"}, {"measurement": "Anti-proliferation effect % Inh.", "setting": "NCIH596; NCIH596, LUNG, 7 days", "result": 46, "unit": "%"}, {"measurement": "Anti-proliferation effect Outcome", "setting": "NCIH596; NCIH596, LUNG, 7 days", "result": "Cytostatic (cytostatic (IC50<1 μM and % inhibition <70%))"}, {"measurement": "Anti-proliferation effect % Inh.", "setting": "KLE; ENDOMETRIUM, 7 days", "result": 65, "unit": "%"}, {"measurement": "Anti-proliferation effect Outcome", "setting": "KLE; ENDOMETRIUM, 7 days", "result": "Cytostatic (cytostatic (IC50<1 μM and % inhibition <70%))"}, {"measurement": "IC50", "setting": "KLE; [2]", "result": 28, "unit": "nM"}, {"measurement": "IC50", "setting": "SAOS2; Homo sapiens, SAOS-2, 168 h, read-out: Anti-proliferation effect IC50", "result": 28, "unit": "nM"}, {"measurement": "Anti-proliferation effect % Inh.", "setting": "SAOS2; SAOS2, BONE, 7 days", "result": 66, "unit": "%"}, {"measurement": "Anti-proliferation effect Outcome", "setting": "SAOS2; SAOS2, BONE, 7 days", "result": "Cytostatic (cytostatic (IC50<1 μM and % inhibition <70%))"}, {"measurement": "Anti-proliferation effect % Inh.", "setting": "T47D; BREAST, 7 days", "result": 68, "unit": "%"}, {"measurement": "Anti-proliferation effect Outcome", "setting": "T47D; BREAST, 7 days", "result": "Cytostatic (cytostatic (IC50<1 μM and % inhibition <70%))"}, {"measurement": "IC50", "setting": "T47D; [2]", "result": 45, "unit": "nM"}, {"measurement": "Anti-proliferation effect % Inh.", "setting": "EVSAT; EVSAT, BREAST, 7 days", "result": 79, "unit": "%"}, {"measurement": "Anti-proliferation effect Outcome", "setting": "EVSAT; EVSAT, BREAST, 7 days", "result": "Cytotoxic (cytotoxic (IC50<1 μM and % inhibition ≥70%))"}, {"measurement": "IC50", "setting": "EVSAT; Homo sapiens, EVSA-T, 168 h, read-out: Anti-proliferation effect IC50", "result": 40, "unit": "nM"}, {"measurement": "IC50", "setting": "TCCSUP; Homo sapiens, TCC-SUP, 168 h, read-out: Anti-proliferation effect IC50", "result": 40, "unit": "nM"}, {"measurement": "Anti-proliferation effect % Inh.", "setting": "TCCSUP; TCCSUP, URINARY, 7 days", "result": 61, "unit": "%"}, {"measurement": "Anti-proliferation effect Outcome", "setting": "TCCSUP; TCCSUP, URINARY, 7 days", "result": "Cytostatic (cytostatic (IC50<1 μM and % inhibition <70%))"}, {"measurement": "Anti-proliferation effect % Inh.", "setting": "KPL1; KPL1, BREAST, 7 days", "result": 43, "unit": "%"}, {"measurement": "Anti-proliferation effect Outcome", "setting": "KPL1; KPL1, BREAST, 7 days", "result": "Cytostatic (cytostatic (IC50<1 μM and % inhibition <70%))"}, {"measurement": "IC50", "setting": "KPL1; KPL-1, 168 h, read-out: Anti-proliferation effect IC50", "result": 668, "unit": "nM"}, {"measurement": "IC50", "setting": "OVCAR5; Homo sapiens, OVCAR-5, 168 h, read-out: Anti-proliferation effect IC50", "result": 86, "unit": "nM"}, {"measurement": "Anti-proliferation effect % Inh.", "setting": "OVCAR5; OVCAR5, OVARY, 7 days", "result": 74, "unit": "%"}, {"measurement": "Anti-proliferation effect Outcome", "setting": "OVCAR5; OVCAR5, OVARY, 7 days", "result": "Cytotoxic (cytotoxic (IC50<1 μM and % inhibition ≥70%))"}, {"measurement": "Anti-proliferation effect % Inh.", "setting": "BT20; BT20, BREAST, 7 days", "result": 45, "unit": "%"}, {"measurement": "Anti-proliferation effect Outcome", "setting": "BT20; BT20, BREAST, 7 days", "result": "Cytostatic (cytostatic (IC50<1 μM and % inhibition <70%))"}, {"measurement": "IC50", "setting": "BT20; Homo sapiens, BT-20, 168 h, read-out: Anti-proliferation effect IC50", "result": 373, "unit": "nM"}]}]}
